Source: paper PMC12605127, “Cyclopropane xenolipids resemble monounsaturated fatty acids and modulate peroxisome proliferator-activated receptors” (Journal of Lipid Research, 2025)
pEC50, pKd: −log10 of the molar value. Like-named read-outs stand apart in the source and are kept apart here.

Assays:
human PPARα = target: T1, human PPARα (Homo sapiens, UniProt Q07869); experiment: LanthaScreen TR-FRET coactivator recruitment assay, PPARα LBD (PGC1α peptide); type: biochemical; conditions: for Emax: read-out: Emax, maximum efficacy, PPARα; for pEC50: TR-FRET coactivator recruitment, human PPARα LBD, read-out: EC50, half maximal effective concentration, PPARα
T1 construct: purchased ThermoFisher Scientific PV4684
T1 sequence (Q07869 239-466 limits assumed): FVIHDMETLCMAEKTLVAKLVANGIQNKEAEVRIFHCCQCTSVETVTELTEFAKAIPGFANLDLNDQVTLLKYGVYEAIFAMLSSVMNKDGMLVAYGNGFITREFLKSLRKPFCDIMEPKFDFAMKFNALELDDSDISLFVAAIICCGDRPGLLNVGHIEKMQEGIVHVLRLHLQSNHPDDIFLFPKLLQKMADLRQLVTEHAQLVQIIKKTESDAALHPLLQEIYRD

human PPARδ = target: T2, human PPARδ (Homo sapiens, UniProt Q03181); experiment: LanthaScreen TR-FRET coactivator recruitment assay, PPARδ LBD (C33 peptide); type: biochemical; conditions: for Emax: read-out: Emax, maximum efficacy, PPARδ; for pEC50: TR-FRET coactivator recruitment, human PPARδ LBD, read-out: EC50, half maximal effective concentration, PPARδ
T2 construct: purchased ThermoFisher Scientific PV4685
T2 sequence (Q03181 211-439 limits assumed): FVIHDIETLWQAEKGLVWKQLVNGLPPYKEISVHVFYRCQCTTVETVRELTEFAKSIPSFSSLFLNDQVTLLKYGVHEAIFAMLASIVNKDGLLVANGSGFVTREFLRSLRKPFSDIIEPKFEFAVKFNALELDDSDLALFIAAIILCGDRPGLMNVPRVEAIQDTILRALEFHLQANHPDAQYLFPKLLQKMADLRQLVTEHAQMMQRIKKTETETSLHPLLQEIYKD

Angptl4 = Angptl4 mRNA expression (qPCR) in 3T3-L1 preadipocytes, without and with PPAR antagonists; type: cell-based, murine; conditions: agonist and antagonist both 10 μM, 3T3-L1 cells
PPARγ = target: PPARγ; design: method as in PMID 32909075; conditions: lowest Kd among nine lipids tested in vitro; cited from earlier work
[1] = % relative to agonist control GW7647 at the highest concentration, 95% confidence intervals in parentheses
[2] = 95% confidence intervals in parentheses
[3] = % relative to agonist control GW501516 at the highest concentration, 95% confidence intervals in parentheses

Compound	Emax (human PPARα; [1]) [%]	pEC50 (human PPARα; [2])	Emax (human PPARδ; [3]) [%]	pEC50 (human PPARδ; [2])	further results
CCCCCC/C=C\CCCCCCCCCC(=O)O [C18:1 cis-11, (11Z)-octadec-11-enoic acid]	45.2	5.46	43.5	4.66	–
CCCCCC/C=C\CCCCCCCC(=O)O [C16:1 cis-9, (9Z)-hexadec-9-enoic acid]	59.1	5.67	39.5	4.58	–
CCCCCC[C@@H]1C[C@@H]1CCCCCCCC(=O)O [C16Δ1 cis-9, (9S,10R)-9,10-methylenehexadecanoic acid]	62.3	4.91	58.1	4.66	–
CCC(=O)NC[C@H](Cc1ccc(OCCc2nc(-c3ccccc3)oc2C)cc1)N/C(C)=C\C(=O)c1ccc(C(F)(F)F)cc1 [GW6471]	–	–	–	–	Reduction of PPAR agonist-mediated Angptl4 expression by the antagonist (Angptl4): did not inhibit
CCC/C=C\CCCCCCCCCCCC(=O)O [C17:1 cis-13, (13Z)-heptadec-13-enoic acid]	70	5.33	30.6	4.75	Emax, maximum efficacy, PPARα (human PPARα; [1]): 69.86 (43, 96.7) a %
CCC[C@@H]1C[C@@H]1CCCCCCCCCC(=O)O [C15Δ1 cis-11, (11S,12R)-11,12-methylenepentadecanoic acid]	26.3	4.85	14.9	4.59	–
O=C(Nc1ccncc1)c1cc([N+](=O)[O-])ccc1Cl [T0070907]	–	–	–	–	Reduction of PPAR agonist-mediated Angptl4 expression by the antagonist (Angptl4): ~50%
O=C(NCCS(=O)(=O)c1ccc(C(F)(F)F)cn1)c1ccc(Cl)cc1 [GSK3787]	–	–	–	–	Reduction of PPAR agonist-mediated Angptl4 expression by the antagonist (Angptl4): ~50%
CCC/C=C\CCCCCCCCCC(=O)O [C15:1 cis-11, (11Z)-pentadec-11-enoic acid]	26.6	4.89	18.9	4.59	–
CCC[C@@H]1C[C@@H]1CCCCCCCCCCCC(=O)O [C17Δ1 cis-13, (13S,14R)-13,14-methyleneheptadecanoic acid]	65	5.39	37.1	4.57	Emax, maximum efficacy, PPARα (human PPARα; [1]): 65.01 (52.5, 77.5) a %
CCCCCCCC/C=C\CCCCCCCC(=O)O [C18:1 cis-9, (9Z)-octadec-9-enoic acid]	–	6.04	–	4.73	Emax (human PPARα): 52%; Emax (human PPARδ): 51.9%
CCCCCC[C@@H]1C[C@@H]1CCCCCCCCCC(=O)O [C18Δ1 cis-11, (11S,12R)-11,12-methyleneoctadecanoic acid]	54.7	5.12	57	4.59	Emax, maximum efficacy, PPARδ (human PPARδ; [3]): 57.03 (52.5, 61.6) a %; pKd (PPARγ): ~4.00
CCCCCCCC[C@@H]1C[C@@H]1CCCCCCCC(=O)O [C18Δ1 cis-9, (9S,10R)-9,10-methyleneoctadecanoic acid]	51.4	5.28	~74	4.57	Emax, maximum efficacy, PPARδ (human PPARδ; [3]): 73.56 (65.9, 81.2) b %

More lines, main results first:

Emax (human PPARα; [1]) [%]	pEC50 (human PPARα; [2])	Emax (human PPARδ; [3]) [%]	pEC50 (human PPARδ; [2])	Compound	further results
52.6	5.27	–	–	CCCCCCCCCCCCCCCC(=O)O [C16, Hexadecanoic acid]	–
86.6	–	–	–	CC(C)(Sc1ccc(CCN(CCCCC2CCCCC2)C(=O)NC2CCCCC2)cc1)C(=O)O [GW7647]	–
36.8	5.02	23.7	4.59	CCCCCCCCCCCCCCC(=O)O [C15, Pentadecanoic acid]	–
55.9	5.20	–	–	CCCCCCCCCCCCCCCCCC(=O)O [C18, Octadecanoic acid]	–
58.9	5.30	41.3	4.65	CCCCCCCCCCCCCCCCC(=O)O [C17, Heptadecanoic acid]	–
